We go through one compound from US10864191B2, “5-HT6 receptor antagonists for use in the treatment of Alzheimer's disease with apathy as comorbidity” (H. Lundbeck A/S, priority 2016, dated 2020).

One assay concerns the target h5-HT2A (Homo sapiens, UniProt P28223). The following applies: cited from earlier work.
The target of another assay is h5-HT1B (Homo sapiens, UniProt P28222). The following applies: cited from earlier work.
For another assay, the target named is h5-HT7 (Homo sapiens, UniProt P34969). The note with it: cited from earlier work.
Assay [1] concerns donepezil-treated patients with moderate Alzheimer's disease. The following applies: add-on to donepezil; cited from earlier work.
The next assay deals with h5-HT2B (Homo sapiens, UniProt P41595). The note with it: cited from earlier work.
Assay [2] concerns donepezil-treated patients with moderate Alzheimer's disease. The following applies: add-on to donepezil 10 mg per day, all patients; cited from earlier work.
Assay [3] has the same test system. Put plainly: LADDER study: cognition (ADAS-cog) in donepezil-treated patients, incl. post-hoc analysis by NPI apathy score. The class given is in vivo, human. As to the method: The […] study that was conducted to assess the effect on cognitive performance of idalopirdine in donepezil-treated patients with moderate Alzheimer's disease. The […] study is registered with ClinicalTrials.gov, number NCT01019421 and is reported in Wilkinson D, et al. Safety and efficacy of idalopirdine, a 5-HT6 receptor antagonist, in patients with moderate Alzheimer's disease (LADDER): a randomised, double-blind, placebo-controlled phase 2 trial Lancet Neurol 2014; 13: 141-49. […] Patients were randomly assigned (1:1) to double-blind treatment with idalopirdine or placebo. The cognitive subscale of the 70-point, 11-item Alzheimer's Disease Assessment Scale (ADAS-cog) was rated at baseline and at weeks 4, 12, and 24. The ADAS-Cog scale is described in Rosen W G et al. A new scale for Alzheimer's disease. Am J Psychiatry 1984; 141: 1356-64. […] Subsequent to the analysis of the primary and secondary endpoints of the […] study as described in Example 2 above a post-hoc analysis was conducted. […] For the post-hoc analysis apathy was considered present if the apathy score as measured by Neuropsychiatric Inventory (NPI) was 1 or higher. The statistical analysis predicted a significant interaction at a 5% significance level between apathy score and treatment effect of idalopirdine on cognition as measured by the ADAS-Cog score (a negative score means less decline in cognitive skills and is thus desirable): […]

In the next assay the target is h5-HT1E (Homo sapiens, UniProt P28566). The following applies: cited from earlier work.
The target in the next assay is h5-HT1D (Homo sapiens, UniProt P28221). The following applies: cited from earlier work.
The next assay has as its target T1, h5-HT1F (Homo sapiens, UniProt P30939).
T1 sequence (P30939 1-366): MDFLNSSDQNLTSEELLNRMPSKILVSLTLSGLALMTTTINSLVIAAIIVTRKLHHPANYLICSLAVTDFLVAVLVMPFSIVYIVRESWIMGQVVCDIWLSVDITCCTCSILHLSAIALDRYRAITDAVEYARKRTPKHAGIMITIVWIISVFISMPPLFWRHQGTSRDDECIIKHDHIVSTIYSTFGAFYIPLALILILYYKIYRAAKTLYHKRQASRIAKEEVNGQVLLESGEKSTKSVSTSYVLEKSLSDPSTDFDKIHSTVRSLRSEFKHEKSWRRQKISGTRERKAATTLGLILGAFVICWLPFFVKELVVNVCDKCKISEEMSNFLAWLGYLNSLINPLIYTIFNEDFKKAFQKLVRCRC
The following applies: cited from earlier work.

For another assay, the target named is T2, h5-HT1A (Homo sapiens, UniProt P08908).
T2 sequence (P08908 1-422): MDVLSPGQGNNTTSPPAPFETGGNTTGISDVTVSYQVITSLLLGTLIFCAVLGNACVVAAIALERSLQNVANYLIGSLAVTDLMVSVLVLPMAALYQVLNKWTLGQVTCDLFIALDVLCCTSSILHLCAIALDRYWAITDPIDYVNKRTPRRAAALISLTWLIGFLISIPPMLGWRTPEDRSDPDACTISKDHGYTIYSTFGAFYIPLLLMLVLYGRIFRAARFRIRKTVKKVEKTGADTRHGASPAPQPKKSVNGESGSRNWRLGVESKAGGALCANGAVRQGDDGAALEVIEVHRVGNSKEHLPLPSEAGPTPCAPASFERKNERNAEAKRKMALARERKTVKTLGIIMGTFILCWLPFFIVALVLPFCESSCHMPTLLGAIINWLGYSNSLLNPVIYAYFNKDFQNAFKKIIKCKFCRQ
The note with it: cited from earlier work.

Assay [4] deals with donepezil-treated patients with moderate Alzheimer's disease. In words: LADDER study post-hoc analysis: Activities of Daily Living (ADCS-ADL) by NPI apathy score. Format: in vivo, human. On the procedure:
Patients were randomly assigned (1:1) to double-blind treatment with idalopirdine or placebo. The same patient population as in Example 3 was analysed in a post-hoc analysis. For the post-hoc analysis apathy was considered present if the apathy score as measured by Neuropsychiatric Inventory (NPI) was 1 or higher. The statistical analysis predicted a significant interaction at a 5% significance level between apathy score and treatment effect of idalopirdine on Activities of Daily Living as measured by the ADCS-ADL score (Galasko et al; An inventory to assess activities of daily living for clinical trials in Alzheimer's Disease. Alzheimer Dis Assoc Disord. 1997;11(Suppl 2):22-32) (a positive score means an improvement): […]

The structures appear in SMILES notation.

h5-HT7, sequence (P34969 whole entry): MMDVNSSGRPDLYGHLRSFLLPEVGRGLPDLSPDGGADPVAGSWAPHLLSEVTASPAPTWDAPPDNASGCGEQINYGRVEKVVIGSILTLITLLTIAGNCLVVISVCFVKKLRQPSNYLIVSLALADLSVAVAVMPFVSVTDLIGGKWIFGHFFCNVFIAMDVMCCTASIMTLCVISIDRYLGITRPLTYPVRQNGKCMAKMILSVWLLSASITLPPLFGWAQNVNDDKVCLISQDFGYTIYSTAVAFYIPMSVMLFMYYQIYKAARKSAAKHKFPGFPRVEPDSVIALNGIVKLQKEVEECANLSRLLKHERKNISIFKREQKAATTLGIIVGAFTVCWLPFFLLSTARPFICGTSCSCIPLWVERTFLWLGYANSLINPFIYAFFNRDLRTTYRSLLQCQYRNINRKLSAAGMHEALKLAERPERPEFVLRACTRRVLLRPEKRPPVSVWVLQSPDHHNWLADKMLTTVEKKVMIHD
h5-HT2A, sequence (P28223 whole entry): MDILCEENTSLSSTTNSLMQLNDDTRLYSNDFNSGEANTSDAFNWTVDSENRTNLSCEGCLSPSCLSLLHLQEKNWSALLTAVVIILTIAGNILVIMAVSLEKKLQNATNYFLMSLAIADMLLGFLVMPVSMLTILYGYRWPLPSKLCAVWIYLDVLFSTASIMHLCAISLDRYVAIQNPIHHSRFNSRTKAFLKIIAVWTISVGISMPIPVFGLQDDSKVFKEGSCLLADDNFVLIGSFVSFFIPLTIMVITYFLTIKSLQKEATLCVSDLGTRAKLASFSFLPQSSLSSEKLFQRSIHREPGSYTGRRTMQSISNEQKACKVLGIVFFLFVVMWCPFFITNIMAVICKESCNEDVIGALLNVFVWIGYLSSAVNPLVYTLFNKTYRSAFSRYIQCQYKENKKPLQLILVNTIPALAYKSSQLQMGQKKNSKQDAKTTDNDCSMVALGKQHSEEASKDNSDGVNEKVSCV
h5-HT1D, sequence (P28221 whole entry): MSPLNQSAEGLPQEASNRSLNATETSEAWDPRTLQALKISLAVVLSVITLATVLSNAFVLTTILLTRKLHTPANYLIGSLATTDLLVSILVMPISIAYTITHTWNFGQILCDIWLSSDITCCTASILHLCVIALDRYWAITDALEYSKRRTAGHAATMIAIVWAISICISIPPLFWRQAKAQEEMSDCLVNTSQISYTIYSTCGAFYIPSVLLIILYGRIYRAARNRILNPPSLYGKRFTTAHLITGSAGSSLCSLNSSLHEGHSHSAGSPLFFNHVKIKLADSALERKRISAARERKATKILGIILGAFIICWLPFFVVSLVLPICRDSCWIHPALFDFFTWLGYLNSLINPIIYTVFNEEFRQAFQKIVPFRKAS
h5-HT1B, sequence (P28222 whole entry): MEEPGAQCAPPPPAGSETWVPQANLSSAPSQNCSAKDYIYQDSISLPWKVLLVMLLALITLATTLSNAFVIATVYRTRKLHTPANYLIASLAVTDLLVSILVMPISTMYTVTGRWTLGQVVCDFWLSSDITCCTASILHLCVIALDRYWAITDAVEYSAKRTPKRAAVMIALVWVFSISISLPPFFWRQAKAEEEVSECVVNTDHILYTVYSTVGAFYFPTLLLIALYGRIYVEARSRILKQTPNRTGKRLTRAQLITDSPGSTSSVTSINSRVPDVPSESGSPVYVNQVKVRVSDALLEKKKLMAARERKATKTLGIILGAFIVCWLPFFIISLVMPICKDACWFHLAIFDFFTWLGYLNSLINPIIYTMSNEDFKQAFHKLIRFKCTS
h5-HT2B, sequence (P41595 whole entry): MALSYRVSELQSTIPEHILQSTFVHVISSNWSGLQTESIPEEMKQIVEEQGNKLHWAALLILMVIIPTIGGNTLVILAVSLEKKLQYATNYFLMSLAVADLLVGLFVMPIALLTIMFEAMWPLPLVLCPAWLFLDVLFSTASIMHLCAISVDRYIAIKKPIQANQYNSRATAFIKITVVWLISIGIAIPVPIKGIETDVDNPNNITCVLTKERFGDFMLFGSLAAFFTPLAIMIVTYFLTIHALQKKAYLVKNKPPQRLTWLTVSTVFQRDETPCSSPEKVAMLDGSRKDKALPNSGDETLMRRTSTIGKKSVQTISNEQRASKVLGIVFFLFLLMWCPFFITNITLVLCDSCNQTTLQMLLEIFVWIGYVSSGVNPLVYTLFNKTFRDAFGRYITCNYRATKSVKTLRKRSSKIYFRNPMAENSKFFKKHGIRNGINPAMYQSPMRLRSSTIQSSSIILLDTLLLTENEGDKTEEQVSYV
h5-HT1E, sequence (P28566 whole entry): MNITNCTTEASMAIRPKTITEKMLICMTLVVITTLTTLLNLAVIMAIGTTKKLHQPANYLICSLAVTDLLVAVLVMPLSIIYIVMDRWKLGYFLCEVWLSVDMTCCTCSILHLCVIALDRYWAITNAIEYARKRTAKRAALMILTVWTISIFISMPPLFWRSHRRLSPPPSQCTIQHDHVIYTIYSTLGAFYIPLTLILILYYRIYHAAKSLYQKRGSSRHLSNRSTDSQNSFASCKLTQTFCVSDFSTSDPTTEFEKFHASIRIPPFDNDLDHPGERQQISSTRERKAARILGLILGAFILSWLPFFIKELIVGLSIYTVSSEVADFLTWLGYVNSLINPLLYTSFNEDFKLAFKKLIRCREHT

The term Ki denotes the dissociation constant of the complex between target and ligand, obtained from inhibition or displacement. For `Fc1ccc2c(CCNCc3cccc(OCC(F)(F)C(F)F)c3)c[nH]c2c1` [idalopirdine, N-(2-(6-fluoro-1H-indol-3-yl)ethyl)-3-(2,2,3,3-tetrafluoropropoxy)-benzylamine], the Ki was 83 nM at h5-HT2A; over 10000 nM on h5-HT1B; over 10000 nM on h5-HT7; over 4100 nM at h5-HT2B; over 4600 nM at h5-HT1E; 2600 nM at h5-HT1D. The Ki on h5-HT1F was 2400 nM; on h5-HT1A, 2300 nM. Moreover, the “Effects on pre-specified secondary efficacy endpoints at week 24” value in assay [1] is recorded as “None of the effects of idalopirdine on the pre-specified secondary endpoints were statistically significant”. The “Change from baseline in the ADAS-cog at week 24 (primary endpoint) versus placebo” value in assay [2] is reported as “significantly better with idalopirdine than with placebo”. Moreover, in [3] (ADAS-Cog score, negative = less decline, add-on to donepezil), the “Estimated change in effect on cognition at week 24 per unit increase in NPI apathy item score (Estimate)” value is given as −0.64. Further, in assay [3] (ADAS-Cog, NPI apathy score 0, add-on to donepezil), the “Effect on cognition at week 24 in patients without apathy (Estimate)” value is reported as −0.81. Also, the “Effect on cognition at week 24 in patients with apathy (Estimate)” value in assay [3] (ADAS-Cog, NPI apathy score 1 or higher, add-on to donepezil) is −3.8. In addition, the “Estimated change in effect on ADL at week 24 per unit increase in NPI apathy item score (Estimate)” value in assay [4] (ADCS-ADL score, positive = improvement, add-on to donepezil) is 0.92. The “Effect on ADL at week 24 in patients without apathy (Estimate)” value in [4] (ADCS-ADL, NPI apathy score 0, add-on to donepezil) was 0.39. Also, the “Effect on ADL at week 24 in patients with apathy (Estimate)” value in [4] (ADCS-ADL, NPI apathy score 1 or higher, add-on to donepezil) was 2.89.
